Read-outs that look alike come from different tables or passages of the source.
What was measured:
Type in all cases: in vivo
Viola tricolor (VIOTR) = test: Pre-emergence herbicidal action against VIOTR
Procedure, shortened: (§1)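 Dosages of 320 g/ha or less; pre-emergence; WP or EC in aqueous spray, 0.5% additive, 600 l/ha; greenhouse; visual % effect after ~3 wk relative to control pots.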

[1] = test system: Alopecurus myosuroides (ALOMY); test: Post-emergence herbicidal action against ALOMY; settings: 80 g/ha, visual rating about 3 weeks after treatment vs untreated controls (100% = plants have died, 0% = like control plants)
Procedure, shortened: (§2)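 Rates were 320 g/ha or below, applied as aqueous WP/EC spray with 0.5% additive (600 l/ha) onto one-leaf-stage plants. About 3 weeks later in the greenhouse, damage was scored visually against untreated plants on a 0–100% scale, where 100% means plants died.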

[2] = test system: Pharbitis purpurea (PHBPU); test: Pre-emergence herbicidal action against PHBPU
Procedure, shortened: as §1

[3] = test system: Alopecurus myosuroides (ALOMY); test: Pre-emergence herbicidal action against ALOMY; settings: scored visually after about 3 weeks, 100% = plants have died
Procedure, shortened: as §1

[4] = test system: Abutilon theophrasti (ABUTH); test: Pre-emergence herbicidal action against ABUTH; settings: Dosage column 320 g/ha (title prints 3200 g/ha); scored visually after about 3 weeks; 100% = plants have died
Procedure, shortened: as §1

[5] = test system: Polygonum convolvulus (POLCO); test: Post-emergence herbicidal action against POLCO; settings: dosage 80 g/ha
Procedure, shortened: as §2

Oryza sativa (ORYSA) = settings: crop plant compatibility
Procedure, shortened: (§3)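 Effects were read visually as % versus untreated controls (0% = no effect, 100% = death) about 3 weeks post-treatment. Application was a post-emergence spray at the one-leaf stage of WP/EC formulations with 0.5% additive at 600 l/ha. Different dosages are denoted a, b and c.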

Zea mays (ZEAMX) = settings: 20 g/ha, ZEAMX, effect in comparison to untreated controls
Procedure, shortened: as §3

[6] = test system: Triticum aestivum (TRZAS); settings: crop plant compatibility, 20 g/ha, effect vs untreated controls
Procedure, shortened: as §3

[7] = test system: Polygonum convolvulus (POLCO); test: Pre-emergence herbicidal action against POLCO; settings: dosage 320 g/ha
Procedure, shortened: as §1

Lolium rigidum (LOLRI) [8] = test: Pre-emergence herbicidal action against LOLRI; settings: dosage 320 g/ha
Procedure, shortened: as §1

Avena fatua (AVEFA) [9] = test: Post-emergence herbicidal action against AVEFA; settings: 80 g/ha, visual rating about 3 weeks after treatment
Procedure, shortened: as §2

[10] = test system: Matricaria inodora (MATIN); test: Post-emergence herbicidal action against MATIN; settings: dosage 80 g/ha
Procedure, shortened: as §2

[11] = test system: Echinochloa crus-galli (ECHCG); test: Pre-emergence herbicidal action against ECHCG
Procedure, shortened: as §1

[12] = test system: Amaranthus retroflexus (AMARE); test: Pre-emergence herbicidal action against AMARE; settings: visual scoring after about 3 weeks vs untreated controls
Procedure, shortened: as §1

Setaria viridis (SETVI) [13] = test: Pre-emergence herbicidal action against SETVI
Procedure, shortened: as §1

[14] = test system: Amaranthus retroflexus (AMARE); test: Post-emergence herbicidal action against AMARE; settings: 80 g/ha, visual rating about 3 weeks after treatment vs untreated controls (100% = plants have died, 0% = like control plants)
Procedure, shortened: as §2

Setaria viridis (SETVI) [15] = test: Post-emergence herbicidal action against SETVI; settings: dosage 80 g/ha
Procedure, shortened: as §2

Avena fatua (AVEFA) [16] = test: Pre-emergence herbicidal action against AVEFA; settings: 320 g/ha, visual scoring after about 3 weeks vs untreated controls
Procedure, shortened: as §1

[17] = test system: Matricaria inodora (MATIN); test: Pre-emergence herbicidal action against MATIN
Procedure, shortened: as §1

[18] = test system: Pharbitis purpurea (PHBPU); test: Post-emergence herbicidal action against PHBPU; settings: dosage 80 g/ha
Procedure, shortened: as §2

[19] = test system: Verconica persica (VERPE); test: Post-emergence herbicidal action against VERPE; settings: dosage 80 g/ha
Procedure, shortened: as §2

[20] = test system: Abutilon theophrasti (ABUTH); test: Post-emergence herbicidal action against ABUTH; settings: 80 g/ha, visual rating about 3 weeks after treatment vs untreated controls (100% = plants have died, 0% = like control plants)
Procedure, shortened: as §2

Lolium rigidum (LOLRI) [21] = test: Post-emergence herbicidal action against LOLRI; settings: dosage 80 g/ha
Procedure, shortened: as §2

[22] = test system: Verconica persica (VERPE); test: Pre-emergence herbicidal action against VERPE; settings: dosage 320 g/ha
Procedure, shortened: as §1

[23] = test system: Echinochloa crus-galli (ECHCG); test: Post-emergence herbicidal action against ECHCG; settings: dosage 80 g/ha
Procedure, shortened: as §2

COC(=O)[C@H](C)COC(=O)COc1nn(-c2ccccn2)c(-c2cncc(F)c2)c1Cl [Example I-74]
Pre-emergence action against VIOTR in % (Viola tricolor (VIOTR); 320 g/ha, Viola tricolor): 100% | Pre-emergence action against VIOTR in % (Viola tricolor (VIOTR); dosage 80 g/ha): 90% | Post-emergence action against ALOMY in % [1]: 100% | Pre-emergence action against PHBPU in % ([2]; dosage 80 g/ha): 90% | Pre-emergence action against PHBPU in % ([2]; dosage 320 g/ha): 90% | Pre-emergence action against ALOMY ([3]; 80 g/ha): 80% | Pre-emergence action against ALOMY ([3]; 320 g/ha): 100% | Pre-emergence action against ABUTH [4]: 90% | Post-emergence action against POLCO in % [5]: 90% | Post-emergence action against ORYSA in % (Oryza sativa (ORYSA); 20 g/ha, effect vs untreated controls): 0% | Post-emergence action against ORYSA in % (Oryza sativa (ORYSA); 80 g/ha, effect in comparison to untreated controls): 10% | Post-emergence action against ZEAMX in % (crop plant compatibility) (Zea mays (ZEAMX)): 10% | Post-emergence action against TRZAS in % [6]: 0% | Pre-emergence action against POLCO in % [7]: 100% | Pre-emergence action against LOLRI in % (Lolium rigidum (LOLRI) [8]): 100% | Post-emergence action against AVEFA in % (Avena fatua (AVEFA) [9]): 90% | Post-emergence action against MATIN in % [10]: 90% | Pre-emergence action against ECHCG in % ([11]; dosage 80 g/ha): 80% | Pre-emergence action against ECHCG in % ([11]; dosage 320 g/ha): 100% | Pre-emergence action against AMARE in % ([12]; 80 g/ha): 90% | Pre-emergence action against AMARE in % ([12]; 320 g/ha): 100% | Pre-emergence action against SETVI in % (Setaria viridis (SETVI) [13]; dosage 80 g/ha): 90% | Pre-emergence action against SETVI in % (Setaria viridis (SETVI) [13]; dosage 320 g/ha): 100% | Post-emergence action against AMARE in % [14]: 80% | Post-emergence action against SETVI in % (Setaria viridis (SETVI) [15]): 80% | Pre-emergence action against AVEFA in % (Avena fatua (AVEFA) [16]): 80% | Pre-emergence action against MATIN in % ([17]; dosage 80 g/ha): 90% | Pre-emergence action against MATIN in % ([17]; dosage 320 g/ha): 90% | Post-emergence action against PHBPU in % [18]: 90% | Post-emergence action against VERPE in % [19]: 80% | Post-emergence action against ABUTH in % [20]: 80% | Post-emergence action against LOLRI in % (Lolium rigidum (LOLRI) [21]): 90% | Pre-emergence action against VERPE in % [22]: 100% | Post-emergence action against ECHCG in % [23]: 90%
